Where “and” joins values, the source holds several entries; their conditions need not be identical. Identical values can stand only once. Like-named read-outs stand apart in the source and are kept apart here.
Experiments:
Type in all cases: cell-based
[1] = tested on: Candida glabrata DSMZ 11226; test: Antimicrobial activity, microdilution MIC, C. glabrata; conditions: Nakaseomyces glabratus, DSMZ11226, 24 h, MIC90, 24 h, RPMI; read-out: MIC C. glabrata DSMZ 11226
Description: (§1) The antimicrobial potential of the tested agents was evaluated against two reference strains of bacteria: Staphylococcus aureus ATCC 25923 and Escherichia coli K12, two reference strains of pathogenic yeasts, Candida albicans ATCC10231 and Candida glabrata DSMZ11226, as well as 20 strains of clinical isolates of S. aureus collected from patients with skin and soft tissue infections (n = 8) and strains derived from subclinical bovine mastitis milk samples (n = 12). Four of these strains, two isolated from human infections and two isolated from bovine mastitis, were classified as MRSA (Methicillin-resistant Staphylococcus aureus). All of them were mecA positive and their methicillin resistance was confirmed with the disc diffusion assay. The remaining 16 strains were MSSA (Methicillin-sensitive Staphylococcus aureus). The assays were performed using a serial, two-fold dilution method in 96-well microtiter plates under conditions recommended by the Clinical and Laboratory Standards Institute (CLSI, Pittsburgh, PA, USA). The aim of this procedure was the determination of the MIC parameter (Minimum Inhibitory Concentration)—the minimum concentration of a tested agent capable to inhibit the growth of a specified strain of microorganism. The agents were solubilized in deionized, sterile water to a final concentration of […]. Subsequently, solutions were mixed (1:1 (v/v)) with 2 × concentrated liquid medium, Mueller-Hinton Broth 2—cation adjusted (MHB2) for evaluation of antibacterial activity and RPMI in the case of evaluation of the antifungal activity. […] Subsequently, the solutions were mixed with MHB2 or RPMI medium to get the final concentration of 8.192 mg/mL (8192 µg/mL). In the next step, the serial, two-fold dilutions of the tested agents (over the range of concentrations from 8192 to 8 µg/mL for reference strains of bacteria and yeasts and from 512 to 1.0 µg/mL for clinical isolates of S. aureus) were prepared in 96-well microtitration plates in the final volume of 100 μL of the appropriate medium.
(§2) The pure cultures of yeast strains were grown on the Sabouraud Dextrose Agar (SDA) for 18–24 h at 37 °C. Suspensions of the microorganisms were prepared by taking one loop of pure culture into sterile water and adjusting optical density to 0.1 at 660 nm and further 50-fold dilution in RPMI 1640 medium resulting in cells concentration of approximate 2 × 10^4 CFU/mL. One hundred μL of that suspension was inoculated to the wells of the microtitration plate containing appropriate dilutions of the agents. The positive growth control of each strain (both bacteria and yeasts) was performed in the wells without the tested substances. The negative control containing only the media was included in each assay. Microtiter plates were incubated at 37 °C for 24 h. Following the incubation period, determination of the MIC values of the tested agents was carried out by measuring the absorbance at 531 nm using a Victor^3 microplate reader (Perkin Elmer, Inc., Waltham, MA, USA). The lowest concentration of the agent causing inhibition of growth equal to or higher than 90% (MIC90) of growth control was taken as the MIC value. Each test was repeated three times.

[2] = tested on: Staphylococcus aureus ATCC 25923; test: Antimicrobial activity, microdilution MIC, S. aureus reference strain; conditions: Staphylococcus aureus, ATCC25923, 24 h, MIC90, 24 h, MHB2; read-out: MIC S. aureus ATCC 25923
Description: as §1
(§3) The pure bacterial cultures of (both the reference and clinical strains) were grown on the Mueller-Hinton Agar (MHA) for 18–24 h at 37 °C. A small amount of the biomass of the culture of each strain of microorganisms was suspended in the sterile PBS (phosphate buffered saline, pH 7.4 at 25 °C, purchased from Sigma) solution to get an optical density OD600 = 0.13 (equal to the cells concentration approximately 1 × 10^8 CFU/mL). The obtained suspensions of the cells were next diluted 1:100 (v/v) in the MHB2 medium. One hundred µL of the cells’ suspension was finally loaded into the wells of plates prepared in advance, which contained 100 µL of two-fold dilutions of the tested agents (the final concentration of the bacterial cells in all wells was approximately 5 × 10^5 CFU/mL).
as §2, with “times. […]” for “times.”

[3] = tested on: S. aureus clinical isolates; test: Antistaphylococcal activity, microdilution MIC, clinical isolates; conditions: Staphylococcus aureus
Description: as §1, §3
as §2, with “times. […]” for “times.”

[4] = 20 clinical isolates, typical value, read-out: MIC against S. aureus clinical isolates, in general
[5] = isolate 1, human infection, MSSA, read-out: MIC S. aureus isolate 1
[6] = isolate 2, human infection, MSSA, read-out: MIC S. aureus isolate 2
[7] = isolate 3, human infection, MSSA, read-out: MIC S. aureus isolate 3
[8] = isolate 4, human infection, MSSA, read-out: MIC S. aureus isolate 4
[9] = isolate 5, human infection, MSSA, read-out: MIC S. aureus isolate 5
[10] = isolate 6, human infection, MSSA, read-out: MIC S. aureus isolate 6
[11] = isolate 7, human infection, MRSA, read-out: MIC S. aureus isolate 7
[12] = isolate 8, human infection, MRSA, read-out: MIC S. aureus isolate 8
[13] = isolate 9, bovine mastitis, MSSA, read-out: MIC S. aureus isolate 9
[14] = isolate 10, bovine mastitis, MSSA, read-out: MIC S. aureus isolate 10
[15] = isolate 11, bovine mastitis, MSSA, read-out: MIC S. aureus isolate 11
[16] = isolate 12, bovine mastitis, MSSA, read-out: MIC S. aureus isolate 12
[17] = isolate 13, bovine mastitis, MSSA, read-out: MIC S. aureus isolate 13
[18] = isolate 14, bovine mastitis, MSSA, read-out: MIC S. aureus isolate 14
[19] = isolate 15, bovine mastitis, MSSA, read-out: MIC S. aureus isolate 15
[20] = isolate 16, bovine mastitis, MSSA, read-out: MIC S. aureus isolate 16
[21] = isolate 17, bovine mastitis, MSSA, read-out: MIC S. aureus isolate 17
[22] = isolate 18, bovine mastitis, MSSA, read-out: MIC S. aureus isolate 18
[23] = isolate 19, bovine mastitis, MRSA, read-out: MIC S. aureus isolate 19
[24] = isolate 20, bovine mastitis, MRSA, read-out: MIC S. aureus isolate 20

| MIC [1] | MIC [2] | MIC [3, 4] | MIC [3, 5] | MIC [3, 6] | MIC [3, 7] | MIC [3, 8] | MIC [3, 9] | MIC [3, 10] | MIC [3, 11] | MIC [3, 12] | MIC [3, 13] | MIC [3, 14] | MIC [3, 15] | MIC [3, 16] | MIC [3, 17] | MIC [3, 18] | MIC [3, 19] | MIC [3, 20] | MIC [3, 21] | SMILES | also measured |
| --- | --- | --- | --- | --- | --- | --- | --- | --- | --- | --- | --- | --- | --- | --- | --- | --- | --- | --- | --- | --- | --- |
| 16 µg/mL and 20 µM | 8 µg/mL and 10 µM | 8 µg/mL | 8 µg/mL and 10 µM | 8 µg/mL and 10 µM | 4 µg/mL and 5 µM | 8 µg/mL and 10 µM | 8 µg/mL and 10 µM | 8 µg/mL and 10 µM | 4 µg/mL and 5 µM | 8 µg/mL and 10 µM | 8 µg/mL and 10 µM | 8 µg/mL and 10 µM | 8 µg/mL and 10 µM | 8 µg/mL and 10 µM | 8 µg/mL and 10 µM | 4 µg/mL and 5 µM | 8 µg/mL and 10 µM | 8 µg/mL and 10 µM | 8 µg/mL and 10 µM | CCCCCCCCCC[N+](C)(C)C1COC2C1OCC2[N+](C)(C)CCCCCCCCCC [QAS 10, N,N’-(1,4:3,6-Dianhydro-2,5-dideoxy-L-iditol-2,5-diyl)-bis(N,N-dimethyl-N-decylammonium) Ditrifluoromethanesulfonate] | MIC [3, 22]: 8 µg/mL and 10 µM; MIC [3, 23]: 8 µg/mL and 10 µM; MIC [3, 24]: 8 µg/mL and 10 µM; MIC ([3]; more susceptible strains among 20 isolates, read-out: MIC of more susceptible S. aureus clinical strains): 4 µg/mL |
| 1020 µg/mL and 1410 µM | 128 µg/mL and 176 µM | 64 µg/mL | 64 µg/mL and 88 µM | 64 µg/mL and 88 µM | 64 µg/mL and 88 µM | 128 µg/mL and 176 µM | 64 µg/mL and 88 µM | 64 µg/mL and 88 µM | 64 µg/mL and 88 µM | 64 µg/mL and 88 µM | 64 µg/mL and 88 µM | 64 µg/mL and 88 µM | 64 µg/mL and 88 µM | 64 µg/mL and 88 µM | 64 µg/mL and 88 µM | 64 µg/mL and 88 µM | 64 µg/mL and 88 µM | 64 µg/mL and 88 µM | 64 µg/mL and 88 µM | CCCCCCCC[N+](C)(C)C1COC2C1OCC2[N+](C)(C)CCCCCCCC (centres unmarked) [QAS 9] | MIC [3, 22]: 64 µg/mL and 88 µM; MIC [3, 23]: 64 µg/mL and 88 µM; MIC [3, 24]: 64 µg/mL and 88 µM |

From PMC8838521, “Antimicrobial, Cytotoxic and Mutagenic Activity of Gemini QAS Derivatives of 1,4:3,6-Dianhydro-L-iditol” (Molecules, 2022)
